Experimental data: US20090162459A1, “Combination Therapy for Treatment of Patients with Neurological Disorders and Cerebral Infarction” (priority 2006, published 2009)

Assays:
Acute Ischemic Stroke = conditions: cited from earlier work
acute ischaemic stroke = conditions: secondary stroke prevention in cerebral stroke patients, aspirin/other antiplatelets/anticoagulant; cited from earlier work
blood coagulation = experiment: Phase IV open-label study NeuroAid®/aspirin interaction in healthy volunteers, 5 coagulation tests; type: in vivo, human; conditions: 11 healthy volunteers per group
Method: Blood samples of the subjects were collected before they received treatment and 2 and 8 hours after treatment initiation.

[1] = clinical stroke trials, versus placebo

SMILES | cognitive function as measured by the Mini Mental Status Examination (Acute Ischemic Stroke; [1]) | functional outcome as measured by the Barthel Index and Rankin scale (Acute Ischemic Stroke; [1]) | neurologic evaluation as measured by the NIH stroke scale (Acute Ischemic Stroke; [1]) | complete recovery at 3 months (Acute Ischemic Stroke; oral Citicoline, acute ischemic stroke, Davalos et al. 2002) | improvement effect (acute ischaemic stroke) | Activated Partial Prothrombine Time, Mean (blood coagulation; T + 2 hours) | D-Dimer, Mean (blood coagulation; T + 2 hours) | Fibrinogen, Mean (blood coagulation; T + 2 hours) | Platelet Aggregation, Mean (blood coagulation; T + 2 hours) | D-Dimer, Mean (blood coagulation; T + 8 hours) | Fibrinogen, Mean (blood coagulation; T + 8 hours) | Platelet Aggregation, Mean (blood coagulation; T + 8 hours) | Activated Partial Prothrombine Time, Mean (blood coagulation; T = 0, before treatment) | D-Dimer, Mean (blood coagulation; T = 0, before treatment) | Fibrinogen, Mean (blood coagulation; T = 0, before treatment) | Platelet Aggregation, Mean (blood coagulation; T = 0, before treatment) | Quick Prothrombine Time, Mean (blood coagulation; T = 0, before treatment)
C[N+](C)(C)CCOP(=O)(O)OP(=O)([O-])OC[C@H]1O[C@@H](n2ccc(N)nc2=O)[C@H](O)[C@@H]1O [Citicoline, CDP-choline] | significant difference between the groups, favoring citicoline treatment | significant difference between the groups, favoring citicoline treatment | significant difference between the groups, favoring citicoline treatment | improve complete recovery at 3 months | – | – | – | – | – | – | – | – | – | – | – | – | –
CC(=O)Oc1ccccc1C(=O)O [Aspirin alone, Acetylsalicylic Acid] | – | – | – | – | about 1% | 39.0 s | 0.16 µg/mL | 3.2 G/L | 62.87 Percentage | 0.16 µg/mL | 3.0 G/L | 48.01 Percentage | 38.8 s | 0.16 µg/mL | 3.2 G/L | 62.82 Percentage | 12.9 s
